Measured values taken from patent US10854312B2, “Selective peptide antagonists” (BIONIZ, LLC, priority 2013, dated 2020).
“Also recorded” adds a separate entry of the source. No end group written: not given here.

Key:
Format in all cases: cell-based
[1] = test system: human IL-15; assay: CTLL-2 proliferation assay (WST-1), IL-15; conditions: murine CTLL-2 cells, 1 nM human IL-15, BNZ132-1 50 and 500 nM, WST-1 OD450
Description: FIG. 6A-FIG. 6E presents inhibitory spectrum of BNZ132-1 over γc- and non-γc-cytokines. […] Neutralizing antibodies against each cytokine (R & D systems, 5 μg ml^−1) were included as controls. After 20 h, the cells were pulsed with WST-1 (Clontech) and OD450 of each well was measured after 6 h. A 19-mer scrambled peptide was used as a negative control at 5 μM. The experiments were conducted in triplicate (applies to all experiments in FIG. 6A-FIG. 6E). The result represents one of at least three independent experiments (applies to all experiments in FIG. 6A-FIG. 6E). […] In PT-18 proliferation assay, PT-18β or PT-18h21Rα cells were withdrawn of mouse IL-3 for 12 h before the experiment. Cells were then incubated with 1 nM of mouse IL-4, mouse IL-9, or mouse IL-21 in the presence or absence of the indicated doses (μM) of BNZ132-1. Neutralizing antibodies to each cytokine (5 μg ml^−1, except for anti-mouse IL-21 polyclonal antibody which was used at 15 μg ml−1) and a scrambled control peptide (5 μM) were included as negative controls. WST-1 assay was conducted as described above. […] In PT-18 h21Rα survival assay, PT-18h21Rα cells are described in the text. […] Both parental and hIL-21Rα positive PT-18 cells were washed and incubated without IL-3 for 12 h before the assay. […] The Y-axis represents the cpm (count per minute) values measured by a β-counter. […]

[2] = target: mouse stem cell factor (Mus musculus, UniProt P20826); assay: PT-18β proliferation assay (3H-thymidine), non-γc cytokine SCF; conditions: 1 nM mouse stem cell factor, 15 μM BNZ132-1
[3] = test system: human IL-15; assay: NK92 cell proliferation assay (WST-1), IL-15; conditions: 24 h
Description: Human peripheral blood mononuclear cells were purified by the Ficoll-paque gradient centrifugation (GE-Healthcare) and stimulated by PHA (5 μg ml^−1, Sigma) for 48 h, then expanded with IL-2 (0.5 nM, Peprotech) for 48h, and then depleted of non-T cells by the Pan-T cell negative enrichment Ab cocktails (Miltenyi). The purified T cells were then fasted of IL-2 overnight prior to the proliferation assay by the tetrazolium dye method. Four hundred thousand cells (in 200 μl culture) were incubated with the cytokines and BNZ132-1 at the indicated concentrations for 24 h, and 20 μl WST1 reagent (Clontech) was added to each well. After 12 h incubation, OD450 was measured. The assay was performed in triplicate. […] NK 92 cells were cultured in human IL-2. Cells were washed to withdraw IL-2 for overnight and two hundred thousand cells (in 200 μl volume) were incubated with the indicated concentrations of the cytokine and BNZ132-1 for 24 h before 20 μl WST-1 reagent (Clontech) was added to each well to measure proliferative response. Absorbance at 450 nm was read at 6 h after the addition of the WST-1 dye. The assay was performed in triplicate. The assay was performed in triplicate and the figure represents a typical result out of 5 different HAM-TSP patients.
FIG. 8B, and FIG. 8C show the results of NK92 cell proliferation assay. NK92 cells responded to IL-2 and IL-15. […]

Chain of mouse stem cell factor (P20826 26-273): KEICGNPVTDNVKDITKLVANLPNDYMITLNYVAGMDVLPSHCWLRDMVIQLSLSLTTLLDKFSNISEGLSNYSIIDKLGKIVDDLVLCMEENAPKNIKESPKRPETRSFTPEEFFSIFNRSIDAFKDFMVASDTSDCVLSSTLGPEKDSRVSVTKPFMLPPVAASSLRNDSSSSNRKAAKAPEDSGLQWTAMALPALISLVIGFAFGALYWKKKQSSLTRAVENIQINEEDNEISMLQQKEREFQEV

Sequence: IKEFLQRFIHIVQSIINTS [BNZ132-1]
- inhibition of IL-15-induced proliferation of CTLL-2 cells [1]: inhibited IL-2 and IL-15 with an equal efficacy; also recorded: efficiently inhibits; also recorded: inhibition of IL-2 and IL-15
- inhibition of SCF-induced proliferation of PT-18β cells [2]: did not inhibit; also recorded: no inhibition; also recorded: no inhibition of non-γc cytokines
- inhibition of IL-15-induced proliferation of NK92 cells [3]: dose-dependent manner; also recorded: dose-dependent inhibition
